Results from the NIST ThermoML archive (doi:10.1021/je400184t).

Experiment: excess molar enthalpy (molar enthalpy of mixing); xn = mol fraction of the nth substance listed
Conditions: 298.15 K, 101 kPa, Liquid, Calvet calorimetry

CN(CCO)CCO [N-methyldiethanolamine] + c1ccncc1
Conditions | excess molar enthalpy [kJ/mol]
x2 = 0.00136 | -0.002
x2 = 0.00718 | -0.008
x2 = 0.01292 | -0.014
x2 = 0.0186 | -0.019
x2 = 0.02422 | -0.025
x2 = 0.03106 | -0.03
x2 = 0.0378 | -0.035
x2 = 0.04445 | -0.04
x2 = 0.051 | -0.044
x2 = 0.05747 | -0.048
x2 = 0.06385 | -0.052
x2 = 0.0715 | -0.056
x2 = 0.07636 | -0.06
x2 = 0.08249 | -0.063
x2 = 0.08853 | -0.066
x2 = 0.0945 | -0.069
x2 = 0.1062 | -0.072
x2 = 0.1119 | -0.075
x2 = 0.1176 | -0.078
x2 = 0.1232 | -0.08
x2 = 0.1287 | -0.083
x2 = 0.1342 | -0.085
x2 = 0.139 | -0.087
x2 = 0.1396 | -0.09
x2 = 0.1449 | -0.092
x2 = 0.1528 | -0.094
x2 = 0.1606 | -0.097
x2 = 0.2605 | -0.118
x2 = 0.2684 | -0.119
x2 = 0.2722 | -0.12
x2 = 0.278 | -0.12
x2 = 0.2817 | -0.121
x2 = 0.2854 | -0.12
x2 = 0.2891 | -0.12
x2 = 0.2928 | -0.121
x2 = 0.2964 | -0.121
x2 = 0.2999 | -0.121
x2 = 0.3034 | -0.121
x2 = 0.3069 | -0.121
x2 = 0.3104 | -0.121
x2 = 0.3138 | -0.121
x2 = 0.3172 | -0.12
x2 = 0.3206 | -0.12
x2 = 0.3239 | -0.12
x2 = 0.3272 | -0.12
x2 = 0.3304 | -0.12
x2 = 0.3337 | -0.12
x2 = 0.3368 | -0.12
x2 = 0.34 | -0.12
x2 = 0.3431 | -0.119
x2 = 0.3463 | -0.119
x2 = 0.3493 | -0.119
x2 = 0.3524 | -0.119
x2 = 0.3554 | -0.119
x2 = 0.3584 | -0.118
x2 = 0.3614 | -0.118
x2 = 0.3643 | -0.118
x2 = 0.3672 | -0.118
x2 = 0.3701 | -0.117
x2 = 0.3729 | -0.117
x2 = 0.3758 | -0.117
x2 = 0.3786 | -0.116
x2 = 0.3814 | -0.116
x2 = 0.3841 | -0.116
x2 = 0.3868 | -0.116
x2 = 0.3895 | -0.115
x2 = 0.3922 | -0.115
x2 = 0.3949 | -0.115
x2 = 0.3975 | -0.114
x2 = 0.4001 | -0.114
x2 = 0.4027 | -0.114
x2 = 0.4053 | -0.113
x2 = 0.4078 | -0.113
x2 = 0.4104 | -0.113
x2 = 0.4129 | -0.112
x2 = 0.4153 | -0.112
x2 = 0.4178 | -0.112
x2 = 0.4203 | -0.111
x2 = 0.4227 | -0.111
x2 = 0.4251 | -0.111
x2 = 0.4274 | -0.11
x2 = 0.4298 | -0.11
x2 = 0.4321 | -0.11
x2 = 0.4345 | -0.109
x2 = 0.4368 | -0.109
x2 = 0.4391 | -0.108
x2 = 0.4414 | -0.108
x2 = 0.4436 | -0.108
x2 = 0.446 | -0.107
x2 = 0.4482 | -0.107
x2 = 0.4505 | -0.107
x2 = 0.4528 | -0.106
x2 = 0.4551 | -0.106
x2 = 0.4574 | -0.105
x2 = 0.4597 | -0.105
x2 = 0.462 | -0.105
x2 = 0.4643 | -0.104
x2 = 0.4666 | -0.104
x2 = 0.4689 | -0.103
x2 = 0.4712 | -0.103
x2 = 0.4735 | -0.103
x2 = 0.4758 | -0.102
x2 = 0.4781 | -0.102
x2 = 0.4804 | -0.101
x2 = 0.4827 | -0.101
x2 = 0.4849 | -0.101
x2 = 0.4872 | -0.1
x2 = 0.4895 | -0.1
x2 = 0.4918 | -0.099
x2 = 0.4941 | -0.099
x2 = 0.4964 | -0.098
x2 = 0.4987 | -0.098
x2 = 0.501 | -0.098
x2 = 0.5033 | -0.097
x2 = 0.5056 | -0.097
x2 = 0.5079 | -0.096
x2 = 0.5102 | -0.096
x2 = 0.5125 | -0.095
x2 = 0.5148 | -0.095
x2 = 0.5171 | -0.094
x2 = 0.5193 | -0.094
x2 = 0.5216 | -0.093
x2 = 0.5239 | -0.093
x2 = 0.5262 | -0.093
x2 = 0.5285 | -0.092
x2 = 0.5308 | -0.092
x2 = 0.5331 | -0.091
x2 = 0.5354 | -0.091
x2 = 0.5377 | -0.09
x2 = 0.54 | -0.09
x2 = 0.5423 | -0.089
x2 = 0.5446 | -0.089
x2 = 0.5469 | -0.088
x2 = 0.5492 | -0.088
x2 = 0.5515 | -0.087
x2 = 0.5538 | -0.087
x2 = 0.5561 | -0.086
x2 = 0.5584 | -0.086
